Key:
[1] = system: CT-L proteasome activity; experiment: CT-L proteasome activity in RBCs of treated mice; assay type: in vivo, mouse; conditions: by 24 h after treatment, murine RBCs, data not shown
Experimental: Cells were harvested by centrifugation at 1200 r.p.m. at room temperature. Cell pellets were washed with PBS and lysed with assay lysis buffer (50 mM HEPES (2-[4-(2-hydroxyethyl) piperazin-1-yl]ethanesulfonic acid)), pH 7.5; 150 mM NaCl; 1% Triton X-100; 2 mM ATP). Cell lysates were incubated on ice for 30 min, mixed by vortex every 5 min, and centrifuged at 12 000 × g for 10 min. Supernatants were transferred to a 96-well plate in triplicate. For each assay, 10 μg of total protein were incubated for 1 h at 37 °C with increasing concentrations (0.001–10 μM) of test compound or vehicle control diluted in assay buffer (50 mM Tris-HCl (tris(hydroxymethyl)aminomethane-HCl), pH 7.5; 150 mM NaCl). After incubation, a specific fluorogenic proteasome substrate was added to each assay reaction (40 μM in a total volume of 100 μl). N-Succinyl-Leu-Leu-Val-Tyr-7-amino-4-methylcoumarin (Suc-Leu-Leu-Val-Tyr-AMC) was used for measuring CT-L activity, t-butoxycarbonyl- Leu-Arg-Arg-7-amino-4-methylcoumarin (Boc-Leu-Arg-Arg-AMC) for T-L activity, and benzyloxycarbonyl-L-leucyl-L-leucyl-L-glutamyl-7-amino-4-methylcoumarin (Z-Leu-Leu-Glu-AMC) for C-L activity. The excitation wavelength was 360 nm and the fluorescence emission of free AMC released during the enzymatic reaction was detected at 460 nm on a SpectraMax M5 fluorescent spectrophotometric plate reader (Molecular Devices, Sunnyvale, CA, USA). AMC release rate was measured at 37 °C in a kinetic mode, recording every 5 min for 30 min.
Five-to-six-week-old male NOD/SCID mice were administered vehicle (5% DMSO, 20% Cremophor) or proteasome inhibitors either intravenously or by oral gavage (3 mice per group), and 20–50 μl of venous blood were collected from each mouse over 24 h. Blood samples were mixed with heparin (APP Pharmaceuticals; Schaumburg, IL, USA) in 0.5-ml tubes in accordance with the manufacturer's instructions. After centrifugal separation at 3000 × g for 10 min, RBCs in the bottom layer were transferred into a new tube and stored at −70 °C until use. RBCs were lysed with assay lysis buffer and incubated on ice for 30 min, mixing by vortex every 5 min, and centrifuged at 12 000 × g for 10 min. Supernatants were transferred to a 96-well plate and proteasome activity was measured as described in 'Cell lysates' section.

[2] = Metabolic stability assay with pooled mouse liver microsomes; assay type: in vitro ADME; conditions: 5 μM compound, 15 min, 0.5 mg/ml pooled mouse liver microsomes, LC/MS
Experimental: Pooled liver microsomes isolated from male CD-1 mice were purchased from BD Biosciences (San Jose, CA, USA). Metabolic stability was calculated by measuring the percentage of 5 μM of each test compound remaining after 15 min incubation with 0.5 mg/ml liver microsomes at 37 °C. Compounds were detected by LC/MS using a Xevo quadrupole time-of-flight mass spectrometer and an ACQUITY ultra-performance LC (UPLC) system (Waters Inc., Milford, MA, USA) to determine relative peak areas of each parent compound.

[3] = system: rats; conditions: cited from earlier work
[4] = system: patients with multiple myeloma; conditions: infusion over 30 min; cited from earlier work

CC(C)C[C@H](NC(=O)[C@H](Cc1ccccc1)NC(=O)c1cnccn1)B(O)O [bortezomib, reference compound]
proteasome activity recovered, of baseline levels [1]: > 50%

CC(C)C[C@H](NC(=O)[C@H](CCc1ccccc1)NC(=O)CN1CCOCC1)C(=O)N[C@@H](Cc1ccccc1)C(=O)N[C@@H](CC(C)C)C(=O)[C@@]1(C)CO1 [carfilzomib]
percentage of parent compound remaining [2]: 70% | rats for which dose was lethal ([3]; 8 mg/kg, bolus infusion, rats): 44% | toxicity of 30 min infusion ([3]; rat, in vivo): not toxic | dose tolerated without adverse effects [4]: up to 56 mg/m^2

— publication PMC4650734, “FV-162 is a novel, orally bioavailable, irreversible proteasome inhibitor with improved pharmacokinetics displaying preclinical efficacy with continuous daily dosing” (Cell Death & Disease, 2015)
